For 23 compounds, IC50 and GI50 results are on record in US20240092779A1, “USP1 INHIBITORS AND USES THEREOF” (Zentaur Therapeutics USA Inc., priority 2022, published 2024).

Test [1] deals with T1, recombinant USP1/UAF1 enzyme complex (Homo sapiens, UniProt O94782).
T1 construct: purchased Biortus
Briefly: Enzyme assay: deubiquitinase fluorometric assay with ubiquitin-Rhodamine substrate. The note with it: USP1/UAF1, Ub-Rho110 substrate, 2 hours preincubation, 1 hour reaction. The format is biochemical. The protocol:
Enzymatic inhibitory potency of the compounds was assessed in a deubiquitinase fluorometric assay using ubiquitin-Rhodamine (Ub-Rho110, R&D Systems) as substrate and the recombinant USP1/UAF1 enzyme complex (Biortus). Assays were performed in a final volume of 12 μL using black 384-well plates (Corning #4514) containing 50 mM HEPES (pH 7.5, BioRoYee), 0.5 mM EDTA, 1 mM dithiothreitol, 0.1 mg/mL bovine serum albumin, 50 nM Ub-Rhol10, 0.004 nM USP1/UAF1, and series diluted compounds from 10 μM to 0.5 nM (10 dilution steps). Assay-ready plates containing 40 nL of Echo-dispensed compound in DMSO were reconstituted with 2 μL of ddH2O, then 5 μL of USP1/UAF1 enzyme mixture was added and preincubated at room temperature for 2 hours. Enzymatic reaction was initiated by the addition of […] substrate mixture and assay allowed to proceed for 1 hour at room temperature before quenching with 3 μL of 150 mM citric acid. Fluorescence signal was detected via TECAN SPARK with excitation at 485 nm and emission at 535 nm. Data analysis was done using GraphPad Prism8 and IC50 values were obtained by 4-parameter logistic curve fitting.
Certain compounds were tested in the assays.

The test system of another test is HCC1806 Ub-PCNA (USP1). Nature of the test: USP1 Western Blot Protocol (HCC1806 Ub-PCNA). The format is cell-based. The conditions noted are these: HCC1806 cells, 4 hours. In a few lines:
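HCC1806 cells seeded overnight, then treated 4 h at 37 °C with a 5-point, 4-fold dilution series (0.1% DMSO). Lysates immunoblotted for Ub-PCNA with fluorescent detection; inhibition expressed as % vehicle from Ub-PCNA upregulation, IC50 by four-parameter logistic fit.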

The next test has as its system MDA-MB-436 cells. Briefly: CTG Protocol (MDA-MB-436 GI50), antiproliferative activity. Type of test: cell-based, human. The note with it: MDA-MB-436 cells (BRCA1 mutation), 7-day incubation, CellTiter-Glo. The procedure, abridged: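 BRCA1-mutant MDA-MB-436 cells were seeded at 1000 cells/well in DMEM, left overnight, then exposed to a 9-point, 3-fold compound series for 7 days at 37 °C, 5% CO2. Viability was read by CellTiter-Glo luminescence. % inhibition was plotted against concentration to derive GI50.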
A general note: ATP-based viability assays read luminescence as a measure of living cells.

T1 sequence (O94782 whole entry): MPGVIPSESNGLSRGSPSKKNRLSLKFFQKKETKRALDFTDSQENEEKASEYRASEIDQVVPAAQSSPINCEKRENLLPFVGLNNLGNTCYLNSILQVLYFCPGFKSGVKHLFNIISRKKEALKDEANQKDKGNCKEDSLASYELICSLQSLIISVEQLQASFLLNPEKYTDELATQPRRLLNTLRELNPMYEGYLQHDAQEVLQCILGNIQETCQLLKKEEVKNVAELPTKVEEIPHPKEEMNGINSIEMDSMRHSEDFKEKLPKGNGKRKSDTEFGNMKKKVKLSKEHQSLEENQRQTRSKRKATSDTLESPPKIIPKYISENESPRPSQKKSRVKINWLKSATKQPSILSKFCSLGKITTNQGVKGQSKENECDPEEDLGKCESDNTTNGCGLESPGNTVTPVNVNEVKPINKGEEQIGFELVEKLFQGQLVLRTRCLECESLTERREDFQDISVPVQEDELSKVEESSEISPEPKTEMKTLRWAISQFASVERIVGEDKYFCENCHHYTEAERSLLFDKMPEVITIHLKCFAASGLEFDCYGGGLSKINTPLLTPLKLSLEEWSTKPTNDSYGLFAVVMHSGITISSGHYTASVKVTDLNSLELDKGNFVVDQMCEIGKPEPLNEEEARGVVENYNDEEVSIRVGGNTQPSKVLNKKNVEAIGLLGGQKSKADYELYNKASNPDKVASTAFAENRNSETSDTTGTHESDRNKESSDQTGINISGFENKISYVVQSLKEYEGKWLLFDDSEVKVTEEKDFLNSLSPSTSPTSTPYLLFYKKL
T1 sequence (Q8TAF3 whole entry partner): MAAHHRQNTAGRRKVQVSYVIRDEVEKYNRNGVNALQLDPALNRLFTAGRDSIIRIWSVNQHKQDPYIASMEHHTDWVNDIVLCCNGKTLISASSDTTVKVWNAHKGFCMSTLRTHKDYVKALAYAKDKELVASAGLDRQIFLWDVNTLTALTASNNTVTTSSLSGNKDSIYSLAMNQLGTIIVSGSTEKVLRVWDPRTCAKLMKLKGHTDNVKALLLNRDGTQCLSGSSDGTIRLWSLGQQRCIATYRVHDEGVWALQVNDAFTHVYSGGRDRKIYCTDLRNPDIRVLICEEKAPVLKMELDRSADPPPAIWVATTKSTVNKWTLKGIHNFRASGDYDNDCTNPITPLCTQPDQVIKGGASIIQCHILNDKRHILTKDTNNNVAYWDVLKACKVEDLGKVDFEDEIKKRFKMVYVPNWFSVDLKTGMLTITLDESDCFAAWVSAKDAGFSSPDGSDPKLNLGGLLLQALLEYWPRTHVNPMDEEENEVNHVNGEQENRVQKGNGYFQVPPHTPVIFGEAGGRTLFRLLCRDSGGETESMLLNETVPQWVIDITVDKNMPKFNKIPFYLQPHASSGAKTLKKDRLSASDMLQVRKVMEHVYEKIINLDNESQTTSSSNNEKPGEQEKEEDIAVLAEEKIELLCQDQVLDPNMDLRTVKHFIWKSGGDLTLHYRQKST

Consider `COc1ncnc(C2CC2)c1-c1ncc2ccc(=O)n(Cc3ccc(-c4ncccc4C)cc3)c2n1` [Compound 74, 2-(4-cyclopropyl-6-methoxypyrimidin-5-yl)-8-{[4-(3-methylpyridin-2-yl)phenyl]methyl}pyrido[2,3-d]pyrimidin-7-one], for which the IC50 (in test [1]; in the test with HCC1806 Ub-PCNA (USP1) (Homo sapiens)) was 10 to 100 nM in each case. Besides, the GI50 (in general, the concentration giving 50% growth inhibition) in the test on MDA-MB-436 cells (Homo sapiens, 168 h) was in the range of 10 to 100 nM.

As for `COc1ncnc(C2CC2)c1-c1ncc2cc(C(C)(C)O)c(=O)n(Cc3ccc(-c4nc(C(F)(F)F)cn4C)cc3)c2n1` [Compound 70], the IC50 (in test [1]; with HCC1806 Ub-PCNA (USP1)) was 10 to 100 nM throughout. In the test with MDA-MB-436 cells, the GI50 fell in the range of 10 to 100 nM.

Turning to `COc1ncnc(C2CC2)c1-c1ncc2c(=O)n(C)c(=O)n(Cc3ccc(-c4nc(C(F)(F)F)cn4C(C)C)cc3)c2n1` [Compound I-26, 7-(4-cyclopropyl-6-methoxypyrimidin-5-yl)-1-({4-[1-isopropyl-4-(trifluoromethyl)imidazol-2-yl]phenyl}methyl)-3-methylpyrimido[4,5-d][1,3]diazine-2,4-dione], the figures for the IC50 (in test [1]; in the test with HCC1806 Ub-PCNA (USP1) (Homo sapiens)) were 10 to 100 nM and 100 to 1000 nM, respectively. In addition, the GI50 in the test with MDA-MB-436 cells (Homo sapiens, 168 h) was 10 to 100 nM.

Turning to `COc1ncnc(C2CC2)c1-c1ncc2ccc(=O)n(Cc3ccc(-c4cccc(C(F)(F)F)c4)cc3)c2n1` [Compound I-42], the IC50 (in test [1]; with HCC1806 Ub-PCNA (USP1) (Homo sapiens)) was 100 to 1000 nM in each case. Besides, the GI50 in the test on MDA-MB-436 cells (Homo sapiens, 168 h) lay within 100 to 1000 nM.

As for `COc1ncnc(C2CC2)c1-c1ncc2ccc(=O)n(Cc3ccc(-c4nc(F)ccc4OC(C)C)cc3)c2n1` [Compound 76, 2-(4-cyclopropyl-6-methoxypyrimidin-5-yl)-8-{[4-(6-fluoro-3-isopropoxypyridin-2-yl)phenyl]methyl}pyrido[2,3-d]pyrimidin-7-one], the IC50 (in test [1]; in the test with HCC1806 Ub-PCNA (USP1) (Homo sapiens)) was 10 to 100 nM throughout. The compound also yielded a GI50 in the test with MDA-MB-436 cells (Homo sapiens, 168 h) of 10 to 100 nM.

With `COc1ncnc(C2CC2)c1-c1ncc2ccc(=O)n(Cc3ccc(-c4nc(C(F)(F)F)cn4C4CC4)cc3)c2c1F` [Compound 82], the IC50 (in test [1]; in the test with HCC1806 Ub-PCNA (USP1) (Homo sapiens)) was 10 to 100 nM each time. For the same compound, the GI50 in the test with MDA-MB-436 cells (Homo sapiens, 168 h) lay in the range of 10 to 100 nM.

For `COc1ncnc(C2CC2)c1-c1ncc2cc(C(C)=O)c(=O)n(Cc3ccc(-c4nc(C(F)(F)F)cn4C)cc3)c2n1` [Compound 69], the IC50 (in test [1]; in the test with HCC1806 Ub-PCNA (USP1)) was 10 to 100 nM throughout. Further, the GI50 with MDA-MB-436 cells lay within 10 to 100 nM.

Regarding `COc1ncnc(C2CC2)c1-c1ncc2ccc(=O)n(Cc3ccc(-c4cncc(C(F)(F)F)n4)cc3)c2n1` [Compound I-51, 2-(4-cyclopropyl-6-methoxypyrimidin-5-yl)-8-({4-[6-(trifluoromethyl)pyrazin-2-yl]phenyl}methyl)pyrido[2,3-d]pyrimidin-7-one], the IC50 (in test [1]; with HCC1806 Ub-PCNA (USP1) (Homo sapiens)) was 100 to 1000 nM in each case. The GI50 in the test with MDA-MB-436 cells (Homo sapiens, 168 h) fell in the range of 100 to 1000 nM.

Take `Cc1ncnc(C2CC2)c1-c1ncc2ccc(=O)n(Cc3ccc(-c4nc(C(F)(F)F)cn4C)cc3)c2n1` [Compound I-49, 2-(4-Cyclopropyl-6-Methylpyrimidin-5-Yl)-8-({4-[1-Methyl-4-(Trifluoromethyl)Imidazol-2-Yl]Phenyl}Methyl)Pyrido[2,3-d]Pyrimidin-7-One]: the IC50 (in general, the midpoint of a concentration-inhibition curve) in test [1] was in the range of 10 to 100 nM; in the test on HCC1806 Ub-PCNA (USP1) (Homo sapiens), 100 to 1000 nM. For the same compound, the 50% growth inhibitory concentration (GI50) with MDA-MB-436 cells (Homo sapiens, 168 h) is 100 to 1000 nM.

As to `COc1ncnc(OC)c1-c1ncc2ccc(=O)n(Cc3ccc(-c4nc(C(F)(F)F)cn4C)cc3)c2n1` [Compound I-47, 2-(4,6-Dimethoxypyrimidin-5-Yl)-8-({4-[1-Methyl-4-(Trifluoromethyl)Imidazol-2-Yl]Phenyl}Methyl)Pyrido[2,3-d]Pyrimidin-7-One], the IC50 (in test [1]; in the test on HCC1806 Ub-PCNA (USP1) (Homo sapiens)) was 10 to 100 nM each time. In the test with MDA-MB-436 cells (Homo sapiens, 168 h), this compound registered a GI50 of 10 to 100 nM.

Turning to `COc1ncnc(C2CC2)c1-c1ncc2ccc(=O)n(Cc3ccc(-c4nc(C(F)(F)F)cn4CCO)cc3)c2n1` [Compound 60, 2-(4-cyclopropyl-6-methoxypyrimidin-5-yl)-8-({4-[1-(2-hydroxyethyl)-4-(trifluoromethyl)imidazol-2-yl]phenyl}methyl)pyrido[2,3-d]pyrimidin-7-one], the concentration for half-maximal inhibition (IC50) (in test [1]; with HCC1806 Ub-PCNA (USP1) (Homo sapiens)) was 10 to 100 nM each time.

On to `COc1ncnc(C2CC2)c1-c1ncc2ccc(=O)n(Cc3ccc(-c4nccc(C(F)(F)F)n4)cc3)c2n1` [Compound I-34], for which the IC50 in test [1] is 100 to 1000 nM; in the test with HCC1806 Ub-PCNA (USP1) (Homo sapiens), above 1000 nM. Moreover, the GI50 in the test on MDA-MB-436 cells (Homo sapiens, 168 h) was above 1000 nM.

As for `COc1ncnc(C2CC2)c1-c1ncc2cc(CN(C)C)c(=O)n(Cc3ccc(-c4nc(C(F)(F)F)cn4C)cc3)c2n1` [Compound 56], the IC50 in test [1] was 10 to 100 nM; with HCC1806 Ub-PCNA (USP1), 100 to 1000 nM. Further, the GI50 in the test with MDA-MB-436 cells was 10 to 100 nM.

As for `CCn1cc(C(F)(F)F)nc1-c1ccc(Cn2c(=O)c(Br)cc3cnc(-c4c(OC)ncnc4C4CC4)nc32)cc1` [Compound I-38, 6-Bromo-2-(4-Cyclopropyl-6-Methoxypyrimidin-5-Yl)-8-({4-[1-Ethyl-4-(Trifluoromethyl)Imidazol-2-Yl]Phenyl}Methyl)Pyrido[2,3-d]Pyrimidin-7-One], the IC50 (in test [1]; in the test on HCC1806 Ub-PCNA (USP1) (Homo sapiens)) was 10 to 100 nM in each case. For the same compound, the GI50 in the test on MDA-MB-436 cells (Homo sapiens, 168 h) fell in the range of 10 to 100 nM.

In the case of `COc1ncnc(C)c1-c1ncc2ccc(=O)n(Cc3ccc(-c4nc(C(F)(F)F)cn4C)cc3)c2n1` [Compound I-46, 2-(4-Methoxy-6-Methylpyrimidin-5-Yl)-8-({4-[1-Methyl-4-(Trifluoromethyl)Imidazol-2-Yl]Phenyl}Methyl)Pyrido[2,3-d]Pyrimidin-7-One], the IC50 (in test [1]; in the test on HCC1806 Ub-PCNA (USP1) (Homo sapiens)) was 100 to 1000 nM each time. In the test on MDA-MB-436 cells (Homo sapiens, 168 h), this compound registered a GI50 of 100 to 1000 nM.

Take `COc1ncnc(C2CC2)c1-c1ncc2ccc(=O)n(Cc3ccc(-c4nc(C(F)(F)F)cn4C4COC4)cc3)c2n1` [Compound 59, 2-(4-cyclopropyl-6-methoxypyrimidin-5-yl)-8-({4-[1-(oxetan-3-yl)-4-(trifluoromethyl)imidazol-2-yl]phenyl}methyl)pyrido[2,3-d]pyrimidin-7-one]: the IC50 (in test [1]; with HCC1806 Ub-PCNA (USP1) (Homo sapiens)) was 10 to 100 nM in each case. This compound also displayed a GI50 in the test on MDA-MB-436 cells (Homo sapiens, 168 h) of 10 to 100 nM.

For the compound `COc1ncnc(C2CC2)c1-c1ncc2ccc(=O)n(Cc3ccc(-c4nc(C(F)(F)F)cn4C)cc3)c2c1F` [Compound I-50, 7-(4-cyclopropyl-6-methoxypyrimidin-5-yl)-8-fluoro-1-({4-[1-methyl-4-(trifluoromethyl)imidazol-2-yl]phenyl}methyl)-1,6-naphthyridin-2-one], the IC50 (in test [1]; with HCC1806 Ub-PCNA (USP1) (Homo sapiens)) was 10 to 100 nM each time. In the test on MDA-MB-436 cells (Homo sapiens, 168 h), this compound gave a GI50 of 10 to 100 nM.

For the compound `COc1ncnc(C2CC2)c1-c1ncc2cc(C3=CCN(C)CC3)c(=O)n(Cc3ccc(-c4nc(C(F)(F)F)cn4C)cc3)c2n1` [Compound 68], the IC50 in test [1] is below 10 nM; with HCC1806 Ub-PCNA (USP1), 100 to 1000 nM. Besides, the GI50 with MDA-MB-436 cells fell in the range of 10 to 100 nM.

Consider `COc1ncnc(C2CC2)c1-c1ncc2cc(CN3CCNCC3)c(=O)n(Cc3ccc(-c4nc(C(F)(F)F)cn4C)cc3)c2n1` [Compound 54, 2-(4-cyclopropyl-6-methoxypyrimidin-5-yl)-8-({4-[1-methyl-4-(trifluoromethyl)imidazol-2-yl]phenyl}methyl)-6-(piperazin-1-ylmethyl)pyrido[2,3-d]pyrimidin-7-one], for which the values for the IC50 (in test [1]; in the test with HCC1806 Ub-PCNA (USP1) (Homo sapiens)) were 10 to 100 nM and 100 to 1000 nM, respectively. This compound also yielded a GI50 in the test on MDA-MB-436 cells (Homo sapiens, 168 h) of 10 to 100 nM.

Consider `COc1ncnc(C2CC2)c1-c1ncc2ccc(=O)n(Cc3ccc(-c4nc(C)ccc4F)cc3)c2n1` [Compound I-35], for which the IC50 in test [1] was in the range of 100 to 1000 nM; with HCC1806 Ub-PCNA (USP1) (Homo sapiens) it was 10 to 100 nM. For the same compound, the GI50 with MDA-MB-436 cells (Homo sapiens, 168 h) was in the range of 10 to 100 nM.

On to `COc1ncnc(C2CC2)c1-c1ncc2cc(Br)c(=O)n(Cc3ccc(-c4nc(C(F)(F)F)cn4C)cc3)c2n1` [Compound I-40], for which the IC50 in test [1] was in the range of 10 to 100 nM. In the test on MDA-MB-436 cells (Homo sapiens, 168 h), this compound gave a GI50 of 10 to 100 nM.

As to `COc1ncnc(C2CC2)c1-c1ncc2cc(CN3CCN(C)CC3)c(=O)n(Cc3ccc(-c4nc(C(F)(F)F)cn4C)cc3)c2n1` [Compound 55, 2-(4-cyclopropyl-6-methoxypyrimidin-5-yl)-8-({4-[1-methyl-4-(trifluoromethyl)imidazo]-2-yl]phenylmethyl)-6-[(4-methylpiperazin-1-yl)methyl]pyrido[2,3-d]pyrimidin-7-one], the IC50 (in test [1]; in the test on HCC1806 Ub-PCNA (USP1)) was 10 to 100 nM throughout. Moreover, in the test on MDA-MB-436 cells, the GI50 was in the range of 10 to 100 nM.

`CCn1cc(C(F)(F)F)nc1-c1ccc(Cn2c(=O)c(C(=O)N(C)C)cc3cnc(-c4c(OC)ncnc4C4CC4)nc32)cc1` [Compound I-39, 2-(4-cyclopropyl-6-methoxypyrimidin-5-yl)-8-({4-[1-ethyl-4-(trifluoromethyl)imidazo]-2-yl]phenylmethyl)-N,N-dimethyl-7-oxopyrido[2,3-d]pyrimidine-6-carb oxamide]: the IC50 in test [1] lay within 10 to 100 nM. In the test on MDA-MB-436 cells (Homo sapiens, 168 h), the GI50 is 10 to 100 nM.
